Data reported in the supplement of paper PMC11665569.
± gives the standard deviation of the averaged measurements.

Tests used:
Test in all cases: relative viability (fraction of vehicle control); higher = more viable / less inhibited
Conditions in all cases: treatment time: 5 days
H1373 = test system: H1373
Experimental: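 CCK-8 viability of H1373 cells with empty vector or constitutively active YAP S127A, treated with KRAS G12C inhibitors for 5 days, normalised to vehicle control.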

H358 = test system: H358
Experimental: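 CCK-8 viability of H358 cells with empty vector or constitutively active YAP S127A, treated with KRAS G12C inhibitors for 5 days. Absorbance at 450 nm normalised to vehicle control.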

MIAPACA2 = test system: MIAPACA2
Experimental: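 CCK-8 viability of MIAPACA2 cells with empty vector or constitutively active YAP S127A, treated with KRAS G12C inhibitors for 5 days, normalised to vehicle control.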

H2030 = test system: H2030
Experimental: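 CCK-8 viability of H2030 cells transfected with control, YAP/TAZ or TEAD1-4 siRNAs and treated with KRAS G12C inhibitors for 5 days. Values are normalised to vehicle control.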

C=CC(=O)N1CCN(c2ncnc3c(F)c(-c4c(O)cccc4F)c(Cl)cc23)CC1 [ARS1620]
Conditions	relative viability
H358, log10 concentration (uM): 0, ectopic expression: YAP S127A	0.842 ± 0.076
H358, log10 concentration (uM): 0, ectopic expression: empty vector (YAP experiment)	0.6 ± 0.076
H358, log10 concentration (uM): 0.39794, ectopic expression: YAP S127A	0.833 ± 0.076
H358, log10 concentration (uM): 0.39794, ectopic expression: empty vector (YAP experiment)	0.389 ± 0.0096
H358, log10 concentration (uM): 0.69897, ectopic expression: YAP S127A	0.617 ± 0.038
H358, log10 concentration (uM): 0.69897, ectopic expression: empty vector (YAP experiment)	0.306 ± 0.025
H358, log10 concentration (uM): 1, ectopic expression: YAP S127A	0.558 ± 0.014
H358, log10 concentration (uM): 1, ectopic expression: empty vector (YAP experiment)	0.217 ± 0.044
H358, log10 concentration (uM): 1.301029996, ectopic expression: YAP S127A	0.383 ± 0.058
H358, log10 concentration (uM): 1.301029996, ectopic expression: empty vector (YAP experiment)	0.128 ± 0.042
H358, log10 concentration (uM): -0.30103, ectopic expression: YAP S127A	0.942 ± 0.088
H358, log10 concentration (uM): -0.30103, ectopic expression: empty vector (YAP experiment)	0.711 ± 0.025
H358, log10 concentration (uM): -0.60206, ectopic expression: YAP S127A	0.958 ± 0.11
H358, log10 concentration (uM): -0.60206, ectopic expression: empty vector (YAP experiment)	0.806 ± 0.16
H358, log10 concentration (uM): -1, ectopic expression: YAP S127A	0.808 ± 0.23
H358, log10 concentration (uM): -1, ectopic expression: empty vector (YAP experiment)	0.883 ± 0.087
H358, log10 concentration (uM): -2, ectopic expression: YAP S127A	0.792 ± 0.076
H358, log10 concentration (uM): -2, ectopic expression: empty vector (YAP experiment)	0.75 ± 0.13
H1373, log10 concentration (uM): 0, ectopic expression: YAP S127A	0.7325 ± 0.0061
H1373, log10 concentration (uM): 0, ectopic expression: empty vector (YAP experiment)	0.658 ± 0.035
H1373, log10 concentration (uM): 0.39794, ectopic expression: YAP S127A	0.627 ± 0.046
H1373, log10 concentration (uM): 0.39794, ectopic expression: empty vector (YAP experiment)	0.504 ± 0.023
H1373, log10 concentration (uM): 0.69897, ectopic expression: YAP S127A	0.564 ± 0.049
H1373, log10 concentration (uM): 0.69897, ectopic expression: empty vector (YAP experiment)	0.413 ± 0.07
H1373, log10 concentration (uM): 1, ectopic expression: YAP S127A	0.545 ± 0.062
H1373, log10 concentration (uM): 1, ectopic expression: empty vector (YAP experiment)	0.329 ± 0.021
H1373, log10 concentration (uM): 1.301029996, ectopic expression: YAP S127A	0.413 ± 0.012
H1373, log10 concentration (uM): 1.301029996, ectopic expression: empty vector (YAP experiment)	0.26 ± 0.015
H1373, log10 concentration (uM): -0.30103, ectopic expression: YAP S127A	0.811 ± 0.049
H1373, log10 concentration (uM): -0.30103, ectopic expression: empty vector (YAP experiment)	0.862 ± 0.041
H1373, log10 concentration (uM): -0.60206, ectopic expression: YAP S127A	0.866 ± 0.036
H1373, log10 concentration (uM): -0.60206, ectopic expression: empty vector (YAP experiment)	0.847 ± 0.13
H1373, log10 concentration (uM): -1, ectopic expression: YAP S127A	0.933 ± 0.051
H1373, log10 concentration (uM): -1, ectopic expression: empty vector (YAP experiment)	0.917 ± 0.077
H1373, log10 concentration (uM): -2, ectopic expression: YAP S127A	1 ± 0.047
H1373, log10 concentration (uM): -2, ectopic expression: empty vector (YAP experiment)	0.989 ± 0.054
H2030, log10 concentration (uM): 0, siRNA knockdown: TEAD1-4 siRNA 1	0.502 ± 0.026
H2030, log10 concentration (uM): 0, siRNA knockdown: TEAD1-4 siRNA 2	0.522 ± 0.021
H2030, log10 concentration (uM): 0, siRNA knockdown: YAP/TAZ siRNA 1	0.521 ± 0.043
H2030, log10 concentration (uM): 0, siRNA knockdown: YAP/TAZ siRNA 2	0.482 ± 0.031
H2030, log10 concentration (uM): 0, siRNA knockdown: negative control siRNA	0.948 ± 0.085
H2030, log10 concentration (uM): 0.39794, siRNA knockdown: TEAD1-4 siRNA 1	0.429 ± 0.021
H2030, log10 concentration (uM): 0.39794, siRNA knockdown: TEAD1-4 siRNA 2	0.365 ± 0.038
H2030, log10 concentration (uM): 0.39794, siRNA knockdown: YAP/TAZ siRNA 1	0.499 ± 0.17
H2030, log10 concentration (uM): 0.39794, siRNA knockdown: YAP/TAZ siRNA 2	0.448 ± 0.021
H2030, log10 concentration (uM): 0.39794, siRNA knockdown: negative control siRNA	0.927 ± 0.11
H2030, log10 concentration (uM): 0.69897, siRNA knockdown: TEAD1-4 siRNA 1	0.257 ± 0.023
H2030, log10 concentration (uM): 0.69897, siRNA knockdown: TEAD1-4 siRNA 2	0.256 ± 0.0087
H2030, log10 concentration (uM): 0.69897, siRNA knockdown: YAP/TAZ siRNA 1	0.369 ± 0.049
H2030, log10 concentration (uM): 0.69897, siRNA knockdown: YAP/TAZ siRNA 2	0.386 ± 0.026
H2030, log10 concentration (uM): 0.69897, siRNA knockdown: negative control siRNA	0.874 ± 0.18
H2030, log10 concentration (uM): 1, siRNA knockdown: TEAD1-4 siRNA 1	0.151 ± 0.019
H2030, log10 concentration (uM): 1, siRNA knockdown: TEAD1-4 siRNA 2	0.168 ± 0.0044
H2030, log10 concentration (uM): 1, siRNA knockdown: YAP/TAZ siRNA 1	0.216 ± 0.027
H2030, log10 concentration (uM): 1, siRNA knockdown: YAP/TAZ siRNA 2	0.261 ± 0.015
H2030, log10 concentration (uM): 1, siRNA knockdown: negative control siRNA	0.742 ± 0.3
H2030, log10 concentration (uM): 1.301029996, siRNA knockdown: TEAD1-4 siRNA 1	0.0456 ± 0.0077
H2030, log10 concentration (uM): 1.301029996, siRNA knockdown: TEAD1-4 siRNA 2	0.0819 ± 0.006
H2030, log10 concentration (uM): 1.301029996, siRNA knockdown: YAP/TAZ siRNA 1	0.114 ± 0.024
H2030, log10 concentration (uM): 1.301029996, siRNA knockdown: YAP/TAZ siRNA 2	0.14 ± 0.0034
H2030, log10 concentration (uM): 1.301029996, siRNA knockdown: negative control siRNA	0.217 ± 0.15
H2030, log10 concentration (uM): -0.30103, siRNA knockdown: TEAD1-4 siRNA 1	0.562 ± 0.024
H2030, log10 concentration (uM): -0.30103, siRNA knockdown: TEAD1-4 siRNA 2	0.478 ± 0.083
H2030, log10 concentration (uM): -0.30103, siRNA knockdown: YAP/TAZ siRNA 1	0.627 ± 0.099
H2030, log10 concentration (uM): -0.30103, siRNA knockdown: YAP/TAZ siRNA 2	0.641 ± 0.059
H2030, log10 concentration (uM): -0.30103, siRNA knockdown: negative control siRNA	0.985 ± 0.052
H2030, log10 concentration (uM): -0.60206, siRNA knockdown: TEAD1-4 siRNA 1	0.646 ± 0.051
H2030, log10 concentration (uM): -0.60206, siRNA knockdown: TEAD1-4 siRNA 2	0.616 ± 0.056
H2030, log10 concentration (uM): -0.60206, siRNA knockdown: YAP/TAZ siRNA 1	0.695 ± 0.097
H2030, log10 concentration (uM): -0.60206, siRNA knockdown: YAP/TAZ siRNA 2	0.731 ± 0.011
H2030, log10 concentration (uM): -0.60206, siRNA knockdown: negative control siRNA	0.992 ± 0.041
H2030, log10 concentration (uM): -1, siRNA knockdown: TEAD1-4 siRNA 1	0.742 ± 0.077
H2030, log10 concentration (uM): -1, siRNA knockdown: TEAD1-4 siRNA 2	0.639 ± 0.026
H2030, log10 concentration (uM): -1, siRNA knockdown: YAP/TAZ siRNA 1	0.753 ± 0.033
H2030, log10 concentration (uM): -1, siRNA knockdown: YAP/TAZ siRNA 2	0.78 ± 0.031
H2030, log10 concentration (uM): -1, siRNA knockdown: negative control siRNA	0.997 ± 0.037
H2030, log10 concentration (uM): -2, siRNA knockdown: TEAD1-4 siRNA 1	0.922 ± 0.088
H2030, log10 concentration (uM): -2, siRNA knockdown: TEAD1-4 siRNA 2	1.12 ± 0.16
H2030, log10 concentration (uM): -2, siRNA knockdown: YAP/TAZ siRNA 1	0.976 ± 0.036
H2030, log10 concentration (uM): -2, siRNA knockdown: YAP/TAZ siRNA 2	0.922 ± 0.061
H2030, log10 concentration (uM): -2, siRNA knockdown: negative control siRNA	1.02 ± 0.023
MIAPACA2, log10 concentration (uM): 0, ectopic expression: YAP S127A	1.05 ± 0.039
MIAPACA2, log10 concentration (uM): 0, ectopic expression: empty vector (YAP experiment)	1.01 ± 0.053
MIAPACA2, log10 concentration (uM): 0.39794, ectopic expression: YAP S127A	0.984 ± 0.069
MIAPACA2, log10 concentration (uM): 0.39794, ectopic expression: empty vector (YAP experiment)	0.743 ± 0.087
MIAPACA2, log10 concentration (uM): 0.69897, ectopic expression: YAP S127A	0.977 ± 0.11
MIAPACA2, log10 concentration (uM): 0.69897, ectopic expression: empty vector (YAP experiment)	0.542 ± 0.026
MIAPACA2, log10 concentration (uM): 1, ectopic expression: YAP S127A	0.913 ± 0.068
MIAPACA2, log10 concentration (uM): 1, ectopic expression: empty vector (YAP experiment)	0.25 ± 0.034
MIAPACA2, log10 concentration (uM): 1.301029996, ectopic expression: YAP S127A	0.315 ± 0.045
MIAPACA2, log10 concentration (uM): 1.301029996, ectopic expression: empty vector (YAP experiment)	0.0583 ± 0.0072
MIAPACA2, log10 concentration (uM): -0.30103, ectopic expression: YAP S127A	0.946 ± 0.025
MIAPACA2, log10 concentration (uM): -0.30103, ectopic expression: empty vector (YAP experiment)	0.996 ± 0.078
MIAPACA2, log10 concentration (uM): -0.60206, ectopic expression: YAP S127A	0.915 ± 0.079
MIAPACA2, log10 concentration (uM): -0.60206, ectopic expression: empty vector (YAP experiment)	0.98 ± 0.083
MIAPACA2, log10 concentration (uM): -1, ectopic expression: YAP S127A	0.969 ± 0.065
MIAPACA2, log10 concentration (uM): -1, ectopic expression: empty vector (YAP experiment)	1.05 ± 0.043
MIAPACA2, log10 concentration (uM): -2, ectopic expression: YAP S127A	0.992 ± 0.12
MIAPACA2, log10 concentration (uM): -2, ectopic expression: empty vector (YAP experiment)	0.994 ± 0.12
